# In patent US20060287320A1, “Preparation of thioarabinofuranosyl compounds and use thereof” (Southern Research Institute, priority 1998, published 2006):
# Columns and labels:
# CAK1-1 Renal = assay: In vitro IC50, 72 hour exposure, Natural Red assay; type: cell-based; settings: read-out: IC50 Molar Values
# Experimental: (§1) EXAMPLE 3 The following in vitro tests were carried out.
# (§2) The above tests were carried out with a 72 hour exposure to the compound using Natural Red assay for all cell lines except SK-MEL 28 which was done with SRB assay.
# DLD-1 Colon = assay: In vitro IC50, 72 hour exposure, Natural Red assay; type: cell-based; settings: Homo sapiens, read-out: IC50 Molar Values
# Experimental: as §1, §2
# LOX IMV1 Melanoma = assay: In vitro IC50, 72 hour exposure, Natural Red assay; type: cell-based; settings: read-out: IC50 Molar Values
# Experimental: as §1, §2
# NC1-H23 Lung = assay: In vitro IC50, 72 hour exposure, Natural Red assay; type: cell-based; settings: read-out: IC50 Molar Values
# Experimental: as §1, §2
# PC-3 Prostate = assay: In vitro IC50, 72 hour exposure, Natural Red assay; type: cell-based; settings: read-out: IC50 Molar Values
# Experimental: as §1, §2
# ZR-75-1 Mammary = assay: In vitro IC50, 72 hour exposure, Natural Red assay; type: cell-based; settings: Homo sapiens, read-out: IC50 Molar Values
# Experimental: as §1, §2
# SC Colon 36 Tumor = assay: Response of SC Colon 36 Tumor to Treatment; type: in vivo; settings: 18 Mg/Kg IP, Q 1D × 9 day 9
# Experimental: (§3) The following in vivo tests were carried out to illustrate the effectiveness of the compounds of the present invention.
# SC CAKI-1 Renal Tumor = assay: Response of SC CAKI-1 Renal Tumor to Treatment; type: in vivo
# Experimental: as §3
# SC HCT-116 Colon Tumor = assay: Response of SC HCT-116 Colon Tumor to Treatment; type: in vivo; settings: Q 1D × 9 day 6
# Experimental: as §3
# CEM cells [1] = assay: Initial half-life of triphosphates in CEM cells; type: cell-based; settings: CEM cells after 1 hour with 100 nM radiolabeled nucleoside, then fresh medium; 5′-triphosphate peak
# Experimental: Samples were collected at various times after the cells were resuspended in fresh medium, and the amount of radioactivity in the 5'-triphosphate peak was determined using SAX HPLC. The data presented are the mean and standard deviation from 3 separate experiments.
# CEM cells [2] = assay: Retention of araCTP and T-araCTP in CEM cells (FIG. 2); type: cell-based
# Experimental: […]. Samples were collected at various times after the cells were resuspended in fresh medium, and the amount of radioactivity in the 5′-triphosphate peak was determined using SAX HPLC. In this experiment there was 0.639 pmoles araCTP/10^6 cells and 0.246 pmoles of T-araCTP after the 1 hour incubation with radiolabeled compound.
structure (smiles),measurement,setting,value
"Nc1nc(=O)n([C@@H]2S[C@H](CO)[C@@H](O)[C@@H]2O)cc1F [5-fluorothioaraC, 1-(4-Thio-β-D-arabinofuranosyl)5-fluorocytosine]",IC50,CAK1-1 Renal,20 µM
same,IC50,DLD-1 Colon,80 µM
same,IC50,LOX IMV1 Melanoma,6 µM
same,IC50,NC1-H23 Lung,3 µM
same,IC50,PC-3 Prostate,100 µM
same,IC50,ZR-75-1 Mammary,0.6 µM
CCCCCCCCCCCCCCCC(=O)Nc1ccn([C@@H]2O[C@H](CO)[C@@H](O)[C@@H]2O)c(=O)n1 [Palmo-ARA-C],Days Delay (T − C),SC Colon 36 Tumor,>38.5 days
same,Days to 2 Doubling,SC Colon 36 Tumor,>49.0 days
same,Non-Specific Deaths/Total,SC Colon 36 Tumor,0/5
same,Tumor Free Surv/Total,SC Colon 36 Tumor,4/5
same,Tumor Regression Duration Med,SC Colon 36 Tumor,34.6 days
same,Tumor Regression Duration Range (Days),SC Colon 36 Tumor,35-35 Days
same,Tumor Regression Number of Complete,SC Colon 36 Tumor,5
same,Tumor Regression Number of Partial,SC Colon 36 Tumor,0
same,Days Delay (T − C),"SC CAKI-1 Renal Tumor; 22.5 Mg/Kg IP, 0 1D × 9 day 7",26.5 days
same,Days to 3 Doubling,"SC CAKI-1 Renal Tumor; 22.5 Mg/Kg IP, 0 1D × 9 day 7",36.0 days
same,Non-Specific Deaths/Total,"SC CAKI-1 Renal Tumor; 22.5 Mg/Kg IP, 0 1D × 9 day 7",1/6
same,Tumor Free Surv/Total,"SC CAKI-1 Renal Tumor; 22.5 Mg/Kg IP, 0 1D × 9 day 7",0/6
same,Tumor Regression Duration Med,"SC CAKI-1 Renal Tumor; 22.5 Mg/Kg IP, 0 1D × 9 day 7",9.1 days
same,Tumor Regression Duration Range (Days),"SC CAKI-1 Renal Tumor; 22.5 Mg/Kg IP, 0 1D × 9 day 7",9-9 Days
same,Tumor Regression Number of Complete,"SC CAKI-1 Renal Tumor; 22.5 Mg/Kg IP, 0 1D × 9 day 7",1
same,Tumor Regression Number of Partial,"SC CAKI-1 Renal Tumor; 22.5 Mg/Kg IP, 0 1D × 9 day 7",0
same,Days Delay (T − C),"SC CAKI-1 Renal Tumor; 45 Mg/Kg IP, Q 1D × 5 day 7",31.7 days
same,Days to 3 Doubling,"SC CAKI-1 Renal Tumor; 45 Mg/Kg IP, Q 1D × 5 day 7",41.2 days
same,Non-Specific Deaths/Total,"SC CAKI-1 Renal Tumor; 45 Mg/Kg IP, Q 1D × 5 day 7",4/6
same,Toxicity remark under Days Delay (T − C),"SC CAKI-1 Renal Tumor; 45 Mg/Kg IP, Q 1D × 5 day 7",(Toxic)
same,Tumor Free Surv/Total,"SC CAKI-1 Renal Tumor; 45 Mg/Kg IP, Q 1D × 5 day 7",0/6
same,Tumor Regression Number of Complete,"SC CAKI-1 Renal Tumor; 45 Mg/Kg IP, Q 1D × 5 day 7",0
same,Tumor Regression Number of Partial,"SC CAKI-1 Renal Tumor; 45 Mg/Kg IP, Q 1D × 5 day 7",0
same,Days Delay (T − C),SC HCT-116 Colon Tumor; 15 Mg/Kg IP,6.0 days
same,Days to 2 Doubling,SC HCT-116 Colon Tumor; 15 Mg/Kg IP,14.9 days
same,Non-Specific Deaths/Total,SC HCT-116 Colon Tumor; 15 Mg/Kg IP,0/6
same,Tumor Free Surv/Total,SC HCT-116 Colon Tumor; 15 Mg/Kg IP,0/6
same,Tumor Regression Number of Complete,SC HCT-116 Colon Tumor; 15 Mg/Kg IP,0
same,Tumor Regression Number of Partial,SC HCT-116 Colon Tumor; 15 Mg/Kg IP,0
same,Days Delay (T − C),SC HCT-116 Colon Tumor; 22.5 Mg/Kg IP,15.1 days
same,Days to 2 Doubling,SC HCT-116 Colon Tumor; 22.5 Mg/Kg IP,24.0 days
same,Non-Specific Deaths/Total,SC HCT-116 Colon Tumor; 22.5 Mg/Kg IP,0/6
same,Tumor Free Surv/Total,SC HCT-116 Colon Tumor; 22.5 Mg/Kg IP,0/6
same,Tumor Regression Duration Med,SC HCT-116 Colon Tumor; 22.5 Mg/Kg IP,24.2 days
same,Tumor Regression Duration Range (Days),SC HCT-116 Colon Tumor; 22.5 Mg/Kg IP,24-24 Days
same,Tumor Regression Number of Complete,SC HCT-116 Colon Tumor; 22.5 Mg/Kg IP,1
same,Tumor Regression Number of Partial,SC HCT-116 Colon Tumor; 22.5 Mg/Kg IP,0
Nc1ccn(C2SC(COP(=O)(O)OP(=O)(O)OP(=O)(O)O)C(O)C2O)c(=O)n1 (stereo not shown) [T-araCTP],"Initial Half-Life, Hours (SD)",CEM cells [1],10.8 ± 1.80 h
same,T-araCTP after the 1 hour incubation,CEM cells [2],0.246 pmol
Nc1ccn(C2CC(O)C(COP(=O)(O)OP(=O)(O)OP(=O)(O)O)S2)c(=O)n1 (stereo not shown) [T-dCTP],"Initial Half-Life, Hours (SD)",CEM cells [1],1.10 ± 0.35 h
